Key:
[1] = tested on: Human alphaherpesvirus 3; test: Antiviral activity against Varicella zoster virus; assay type: functional, organism-based
[2] = tested on: Human immunodeficiency virus 1; test: Antiviral activity against HIV1; assay type: functional, organism-based
[3] = tested on: Moloney murine sarcoma virus; test: Antiviral activity against Moloney sarcoma virus; assay type: functional, organism-based
[4] = tested on: Human alphaherpesvirus 2; test: Antiviral activity against Herpes simplex virus 2; assay type: functional, organism-based; conditions: Human alphaherpesvirus 2
[5] = tested on: Human immunodeficiency virus 2; test: Antiviral activity against HIV2; assay type: functional, organism-based
[6] = tested on: Human alphaherpesvirus 1; test: Antiviral activity against Herpes simplex virus 1; assay type: functional, organism-based; conditions: Human alphaherpesvirus 1
[7] = tested on: Simplexvirus; test: Antiviral activity against Herpes simplex virus; assay type: functional, organism-based
[8] = tested on: Human adenovirus 2; test: Antiviral activity against Human adenovirus 2; assay type: functional, organism-based; conditions: Human mastadenovirus C
[9] = tested on: Human betaherpesvirus 5; test: Antiviral activity against Human cytomegalovirus; assay type: functional, organism-based; conditions: Human betaherpesvirus 5
[10] = tested on: Human betaherpesvirus 6; test: Antiviral activity against Human herpesvirus 6B; assay type: functional, organism-based
[11] = tested on: Human betaherpesvirus 6; test: Antiviral activity against Human herpesvirus 6A; assay type: functional, organism-based
[12] = tested on: unidentified influenza virus; test: Antiviral activity against influenza virus; assay type: functional, organism-based
[13] = tested on: Influenza A virus; test: Antiviral activity against influenza H1N1 virus; assay type: functional, organism-based
[14] = tested on: Picornaviridae; test: Antiviral activity against Human picornavirus; assay type: functional, organism-based
[15] = tested on: Influenza A virus H3N2; test: Antiviral activity against influenza H3N2 virus; assay type: functional, organism-based, H3N2 subtype
[16] = tested on: Cowpox virus; test: Antiviral activity against Cowpox virus; assay type: functional, organism-based
[17] = tested on: Vaccinia virus; test: Antiviral activity against Vaccinia virus; assay type: functional, organism-based, Orthopoxvirus vaccinia; conditions: Orthopoxvirus vaccinia
[18] = tested on: Monkeypox virus; test: Antiviral activity against Monkeypox virus; assay type: functional, organism-based
[19] = tested on: Human gammaherpesvirus 8; test: Antiviral activity against Human herpesvirus 8; assay type: functional, organism-based
[20] = tested on: Human gammaherpesvirus 4; test: Antiviral activity against Epstein-Barr virus; assay type: functional, organism-based
[21] = tested on: H2N2 subtype; test: Antiviral activity against influenza H2N2 virus; assay type: functional, organism-based; conditions: Influenza A virus
[22] = tested on: H5N1 subtype; test: Antiviral activity against influenza H5N1 virus; assay type: functional, organism-based; conditions: Influenza A virus

## Nc1cc(=O)n(CCOCP(=O)(O)O)cn1
[1]
  IC50: 0.201 nM
[2]
  IC50: 0.402 nM
[3]
  IC50: 0.554 nM
[4]
  IC50: 1.61 nM
[5]
  IC50: 0.402 nM
[6]
  IC50: 1.61 nM

## O=C(NCc1ccc(Cl)cc1)c1cnc2ccc(CCCO)cc2c1O
[7]
  IC50: 11000 nM

## O=C(O)P(=O)(O)O [FOSCARNET]
[8]
  IC50: 500000 nM
[9]
  IC50: 7000 nM

## N#Cc1cn([C@@H]2O[C@H](CO)[C@@H](O)[C@H]2O)c2ncnc(N)c12 [TOYOCAMYCIN]
[7]
  IC50: 38000 nM

## O[C@@H]1[C@H](O)[C@H](O)CO[C@H]1n1c(Br)nc2cc(Cl)c(Cl)cc21
[10]
  IC50: 95000 nM
[11]
  IC50: 125000 nM

## CCC(CC)[C@H](NC(C)=O)[C@@H]1[C@H](O)[C@@H](C(=O)O)C[C@H]1NC(=N)N [PERAMIVIR ANHYDROUS]
[12]
  IC50: 8400 nM
[13]
  IC50: 200 nM

## CNC(=O)/C=C(\c1ccc(OC)cc1)c1ccc2nc(NCC(=O)NC)c(-c3ccc(F)cc3)n2n1
[14]
  IC50: 600 nM

## Nc1cc(SCCOCP(=O)(O)O)nc(N)n1
[1]
  IC50: 0.0536 nM
[3]
  IC50: 607 nM
[4]
  IC50: 0.286 nM
[6]
  IC50: 0.104 nM

## CCC(CC)C(NC(C)=O)C1C(NC(=N)N)CC(C(=O)O)C1O (configuration not stated)
[15]
  IC50: 140 nM

## Cc1ccc(Cn2c(N)c(C#N)c3c(N)ncnc32)cc1
[7]
  IC50: 60000 nM

## Nc1ccn(C[C@H]2COP(=O)(O)CO2)c(=O)n1 [CYCLIC CIDOFOVIR]
[16]
  IC50: 51000 nM
[17]
  IC50: 21000 nM
[18]
  IC50: 760000 nM

## Nc1nc2ccc(/C(=N/O)c3ccccc3)nn2c1-c1ccccc1
[14]
  IC50: 40 nM

## Nc1nc(OCCOCP(=O)(O)O)cc(=O)n1CCOCP(=O)(O)O
[1]
  IC50: 0.124 nM
[2]
  IC50: 0.248 nM
[3]
  IC50: 0.266 nM
[4]
  IC50: 0.993 nM
[5]
  IC50: 0.248 nM
[6]
  IC50: 0.993 nM

## Nc1nc(NC2CC2)cc(OCCOCP(=O)(O)O)n1
[1]
  IC50: 0.164 nM
[2]
  IC50: 0.329 nM
[3]
  IC50: 0.132 nM
[4]
  IC50: 0.263 nM
[6]
  IC50: 0.789 nM

## Nc1ncnc2c1c(Br)cn2COCCO
[7]
  IC50: 16000 nM

## Nc1nc(OCCOCP(=O)(O)O)cc(OCCOCP(=O)(O)O)n1
[1]
  IC50: 0.124 nM
[2]
  IC50: 0.141 nM
[3]
  IC50: 0.107 nM
[4]
  IC50: 0.993 nM
[5]
  IC50: 0.199 nM
[6]
  IC50: 0.596 nM

## Nc1cc(O)nc(SCCOCP(=O)(O)O)n1
[1]
  IC50: 0.178 nM
[2]
  IC50: 0.356 nM
[3]
  IC50: 0.256 nM
[4]
  IC50: 1.42 nM
[6]
  IC50: 1.42 nM

## Nc1ccn(/C=C2/CC2(CO)CO)c(=O)n1
[1]
  IC50: 448000 nM
[19]
  IC50: 197000 nM
[9]
  IC50: 14000 nM
[20]
  IC50: 45000 nM
[4]
  IC50: 448000 nM
[6]
  IC50: 448000 nM

## CC(=O)N[C@H]1[C@H]([C@H](O)[C@H](O)CO)OC(C(=O)O)=C[C@@H]1NC(=N)N [ZANAMIVIR]
[15]
  IC50: 680 nM
[21]
  IC50: 760 nM
[22]
  IC50: 220 nM

## Nc1nc2ccc(/C(=N/O)c3ccccc3)nn2c1-c1ccc(F)cc1
[14]
  IC50: 50 nM

## Nc1ccn([C@H]2CC[C@@H](CO)O2)c(=O)n1 [ZALCITABINE]
[8]
  IC50: 3300 nM

## CN(C)c1cc(OCCOCP(=O)(O)O)nc(N)n1
[1]
  IC50: 0.171 nM
[2]
  IC50: 0.342 nM
[3]
  IC50: 0.455 nM
[4]
  IC50: 1.37 nM
[5]
  IC50: 0.342 nM
[6]
  IC50: 1.37 nM

## Nc1nc(N)c2ncn(/C=C3\CC3(CO)CO)c2n1
[1]
  IC50: 39000 nM
[19]
  IC50: 165000 nM
[9]
  IC50: 3300 nM
[4]
  IC50: 381000 nM
[6]
  IC50: 381000 nM

## O=C(NCc1ccc(Cl)cc1)c1cnc2c(F)cccc2c1O
[7]
  IC50: 13000 nM
[1]
  IC50: 1200 nM
[9]
  IC50: 11000 nM

## N#Cc1cn([C@@H]2O[C@H](CO)[C@@H](O)[C@@H]2F)c2ncnc(N)c12
[7]
  IC50: 470 nM
[9]
  IC50: 25 nM

## CC(C)Nc1nc2cc(Cl)c(Cl)cc2n1[C@H]1O[C@@H](CO)[C@H](O)[C@@H]1O [MARIBAVIR]
[10]
  IC50: 106000 nM
[11]
  IC50: 125000 nM
